Test results reported in patent US20100247590A1, “Peptide-Based Systems For Delivery Of Cosmetic Agents” (JOHNSON & JOHNSON, priority 2009, published 2010).
Where two headings read alike, the source gives them in different places. No end group written: not given here.

Columns and labels:
[1] = biotinylated peptide, streptavidin-HRP ELISA
Source text: See, e.g., Example 3 of U.S. Patent Application Publication 2005/022683; hereby incorporated by reference. The MB50 provides an indication of the strength of the binding interaction or affinity of the components of the complex. […] For example, a peptide with a nanomolar (nM) MBso binds more tightly than a peptide with a micromolar (μM) MB50.
The purpose of this Example was to determine the affinity and specificity of the various hair-binding peptides for hair and pigment surfaces, measured as MB50 values, using an ELISA assay. Each of the short, linear peptides were originally identified using phage display. Unless otherwise indicated, the sequences provided in Example 2 include a C-terminal lysine residue that was biotinylated for detection purposes.
The MB50 measurements of biotinylated peptides binding to hair and to red iron oxide particles (Unipure Red from Sensient Technologies, Milwaukee, Wis.) were made using hair bundles. The hair samples were assembled in bundles consisting of 100 hairs about 1 cm long which were bundled together using narrow tape at one end. The hair bundles were incubated in SUPERBLOCK® blocking buffer (Pierce Chemical Co., Rockford, Ill.) for 1 hour at room temperature (˜22° C.), followed by 3 washes with TBST (TBS in 0.05% TWEEN® 20). Peptide binding buffer consisting of various concentrations of biotinylated peptide in TBST and 1 mg/mL BSA was added to the hair bundles and incubated for 1 hour at room temperature, followed by 6 TBST washes. Then, the streptavidin-horseradish peroxidase (HRP) conjugate (Pierce Chemical Co., Rockford, Ill.) was added to each well (1.0 μg per well), and incubated for 1 h at room temperature, followed by 6 times of washes with TBST. All hair bundles were transferred to new tubes and then the color development and the absorbance measurements were performed following standard protocols. The results were plotted as A450 versus the concentration of peptide using GraphPad Prism 4.0 (GraphPad Software, Inc., San Diego, Calif.).

[2] = Peptide-mediated binding of Co-NTA magnetic beads to gray hair, visual rating on magnet; parameters: species or system human; conditions: Table 11; peptide 0.2 μM
Experimental: Approximately 5 mg of 5 mm long hair strands (90% gray, human) were transferred to 2-mL microcentrifuge tubes. Approximately 1 mL of TBST0.1 buffer (25 mM Tris, 150 mM NaCl, pH7.2, with 0.1% TWEEN®-20) or the same buffer including varying concentrations of HC263 peptide was added to the hair.
The mixtures were shaken on a Nutator for one hour at room temperature (˜22° C.). The hairs were washed three times with TBST0.5 buffer (25 mM Tris, 150 mM NaCl, pH 7.2, with 0.5% TWEEN®-20). After washing, the hairs were resuspended in 900 μL Talon buffer (50 mM sodium phosphate, pH 8.0, 300 mM sodium chloride, 0.01% TWEEN®-20). A subset of hair/peptide conjugates were washed additionally one time with 1 mL of 0.25% SLES (Sodium Lauryl Ether Sulfate) for 5 min at room temperature on the Nutator, then washed two times with 1 mL TBST0.1 buffer. Approximately 0.2 mg of TALON™ beads (DYNABEADS® TALONT™, Invitrogen, Catalog#101.01D) were washed twice with TALON™ buffer on the DYNAL® MPC™ magnet and added to each reaction in 100 μL TALON™ buffer. […]
Beads binding to the hair were expected to co-migrate on the sides of the tubes once applied to the magnet. The strength of binding was visually assessed and rated on a scale of 0 (little or no observed binding) to 5 (highest amount of observed binding). […]

[3] = Visual color assessment of hair treated with peptide then streptavidin-coated iron oxide beads (sequential coloring); conditions: for color intensity value (0-5, 0 no color deposition, 5 deepest color): Table 15, streptavidin-coated iron oxide beads 500 nm; for perceptible color: Tables 17-19
Experimental: A biotinylated peptide and streptavidin-bead system was used to color hair. Sequential deposition was achieved by the following process.
Miniature hair tresses of approximately 1 inch in length containing 100% unpigmented hair were placed in an aqueous solution with 20 mM of peptides (in DI water or Tris Buffered Saline, pH 7.2, 5-150 mM ionic strength), for up to one hour at room temperature, derived in accordance with the methods set forth herein.
Hair samples were pretreated by exposing the hair to different peptides. The peptide created a layer on the hair. Hair samples with a peptide layer were rinsed with SLES solution to remove excess peptide. Next, the peptide-treated hair samples were incubated with streptavidin tagged iron oxide particles (Bangs Laboratories, Inc., Fishers, Ind.; Ademtech, Inc., Pessas, France) to allow the binding between biotin and streptavidin or between the streptavidin-binding domain in HC260 and streptavidin. Particles were purchased in dispersed form and were diluted to 0.025-1 wt % by adding a specified amount of either DI water or Coupling Buffer from Ademtech. Binding was permitted to take place during an incubation period for up to 24 hours at room temperature (˜22° C.) in the dark. Samples were continuously inverted end-over-end during the binding duration incubation period.
A color scale for the associated color intensity of iron oxide treated hair was defined as (0-5), where 0 is no color deposition and 5 is the deepest color.

[4] = 200 nm streptavidin-coated iron oxide beads; FIGS. 4A and 4B
Source text: Humans can perceive color that is in about the 400 nm to 700 nm range. Ultraviolet light, i.e., 200-400 nm is not visible to humans.

[5] = fluorescence microscopy, FIG. 1
Experimental: A biotinylated peptide and streptavidin-coated bead system was used to illustrate the coupling of beads to hair in accordance with the methods and compositions of this invention.
A human hair sample was placed in an aqueous solution containing 20 mM of HCP5 dimer peptide (SEQ ID NO: 204) derived in accordance with the methods set forth herein. […] The HCP5 dimer was purchased from American Peptide Co., Inc. (Sunnyvale, Calif.) in both biotinylated (SEQ ID NO: 205) and non-biotinylated (SEQ ID NO: 204) versions (a single lysine residue was added to the C-terminus of the biotinylated version to facilitate biotin coupling).
Hair samples were pretreated by exposing the hair samples to either the biotinylated or the non-biotinylated peptide. Ten strands of natural dark brown hair (International Hair Importers), three inches in length, were pre-washed with 2% SLES for 30 seconds, then rinsed extensively with DI water. The hair strands were then immersed in 10 mL of a 5-20 micromolar solution of peptide for up to one hour. Ten hair samples were exposed to the biotinylated peptide and ten hair samples were exposed to non-biotinylated peptide. […]
After the incubation period ended, fluorescence microscopy was used to view the binding of 40 nm fluorescently-labeled streptavidin-coated polystyrene particles to hair.

streptavidin = streptavidin (Streptomyces avidinii, UniProt P22629); test: biochemical
[6] = Table 17, 200 nm particles, initial, before washing with water
[7] = Table 18, 200 nm particles, after washing with water
[8] = Table 18, 500 nm particles, after washing with water
[9] = Table 19, 200 nm particles, after 0.25% SLES wash

streptavidin, sequence (P22629 25-183): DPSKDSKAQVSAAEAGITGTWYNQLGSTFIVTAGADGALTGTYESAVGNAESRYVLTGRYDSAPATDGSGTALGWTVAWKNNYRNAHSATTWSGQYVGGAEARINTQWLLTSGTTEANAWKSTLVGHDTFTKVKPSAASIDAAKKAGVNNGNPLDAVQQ

## AQSQLPDKHSGLHERAPQRYK-Biotin [Hair2]
[1]; substrate 90% gray hair
  MB50: 0.25 µM
[1]; substrate Unipure Red particle
  MB50: 6.8 µM

## GSDPG-Gray3-GGG-Gray3-GGGGSGGGGSG-HHHHHH (GSDPGHDHKNQKETHQRHAAGGGHDHKNQKETHQRHAAGGGGSGGGGSGHHHHHH) [HC214]
[2]
  Strength of binding (5 highest, 0 lowest): 0

## GSDPG-IB5A-GGGGSGGGGSG-HHHHHH (GSDPGTPPELLHGAPRSGGGGSGGGGSGHHHHHH) [HC205]
[2]
  Strength of binding (5 highest, 0 lowest): 0

## HCP5-GGSGPGSGG-HCP5 [(HCP5)2]
[3]
  color intensity value (0-5, 0 no color deposition, 5 deepest color): 0
[3]; Table 16, streptavidin-coated iron oxide beads, sequential coloring method
  color scale score (0-5): 0
[3]; [6]
  color measurement (0-5 color scale): 0
[3]; Table 17, 500 nm particles, initial, before washing with water
  color measurement (0-5 color scale): 0
[3]; [7]
  color measurement (0-5 color scale): 0
[3]; [8]
  color measurement (0-5 color scale): 0
[3]; [9]
  color measurement (0-5 color scale): 0
[3]; Table 19, 500 nm particles, after 0.25% SLES wash
  color measurement (0-5 color scale): 0

## HCP5-GGSGPGSGG-HCP5-K [(HCP5)2-biotin]
[3]; 200 nm beads
  perceptible color: did not exhibited perceptible color
[3]; 500 nm beads
  perceptible color: exhibited perceptible color
[3]
  color intensity value (0-5, 0 no color deposition, 5 deepest color): 4
[3]; [6]
  color measurement (0-5 color scale): 0
[3]; [7]
  color measurement (0-5 color scale): 0
[3]; [8]
  color measurement (0-5 color scale): 3
[3]; [9]
  color measurement (0-5 color scale): 0
[4]
  deposition of beads on hair: 200 nm beads were deposited on the hair
[5]
  binding of 40 nm fluorescently-labeled streptavidin-coated polystyrene particles to hair: bound the particles to hair

## HINKTNPHQGNHHSEKTQRQK-Biotin [MEA4]
[1]; substrate 90% gray hair
  MB50: 0.061 µM
[1]; substrate Unipure Red particle
  MB50: 8.7 µM

## MLSENWLTNHPQN [SB33N]
streptavidin
  Kd: ~100 µM

## THSTHNHGSPRHTNADAGNPK-Biotin [HCP1]
[1]; substrate 90% gray hair
  MB50: 0.044 µM
[1]; substrate Unipure Red particle
  MB50: 9.8 µM

## TPPELAHTPHHLAQTRLTDRK-Biotin [Hair4]
[1]; substrate 90% gray hair
  MB50: 0.15 µM
[1]; substrate Unipure Red particle
  MB50: 5 µM
